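Step 1: Grow cells in 96-well plates. Step 2: Expose to compound for 48 hours at 5 concentrations. Step 3: Interpolate endpoints linearly; if unreached, use highest concentration. GI50: concentration for 50% inhibition of growth.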 Activity calls are given as the source filed them. Rule as the data show it: active = GI50 up to about 1.1 µM and inactive = higher.
System: RPMI-8226
Test: NCI tumour cell line growth inhibition, 48 h

S=C1NN=C2C(=C3CCCC4C5CCCCC5N2C34)N1 (stereo unspecified)
GI50: 28.4 µM (inactive)
